Measurements as given in patent US20150011466A1, “APJ Receptor Compounds” (priority 2012, published 2015).
Where two headings read alike, the source gives them in different places. Where a SMILES comes first, the peptide text is derived from it. [ ]: non-standard residue; d: D form. The star is where a group is joined. Palmitoyl = CCCCCCCCCCCCCCCC(=O)*; Aib = CC(C)(N)C(=O)O

Tests used:
[1] = molecular target: T1, APJ receptor (Homo sapiens, UniProt P35414); assay: HTRF cAMP assay, inhibition of NKH477 stimulated cAMP in Human TRex cells expressing APJ upon doxycycline induction (APJ-hTREX); format: cell-based; settings: for percent intrinsic activity at 0.3 µM: read-out: % IA (@ 300 nM); for Ranking: class combining EC50 and % histamine
T1 construct: expressed in transfected cells; host or cells: Human TRex cells (doxycycline-inducible)
T1 sequence (P35414 1-380): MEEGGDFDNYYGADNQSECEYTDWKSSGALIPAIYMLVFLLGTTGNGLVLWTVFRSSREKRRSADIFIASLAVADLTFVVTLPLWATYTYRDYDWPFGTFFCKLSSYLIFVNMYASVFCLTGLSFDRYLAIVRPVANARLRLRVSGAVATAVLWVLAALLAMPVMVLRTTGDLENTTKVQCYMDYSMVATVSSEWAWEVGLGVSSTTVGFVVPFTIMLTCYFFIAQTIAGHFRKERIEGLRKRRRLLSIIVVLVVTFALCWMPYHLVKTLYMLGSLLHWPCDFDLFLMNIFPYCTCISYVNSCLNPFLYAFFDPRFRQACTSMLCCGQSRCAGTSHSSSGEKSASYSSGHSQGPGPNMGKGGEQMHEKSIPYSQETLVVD
How it was run: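 Cells stimulated with NKH477 and cAMP measured by HTRF competitive immunoassay (cryptate anti-cAMP antibody, d2-labeled cAMP). APJ-hTREX cells induced with […] doxycycline and seeded overnight at 40 k/well.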

[2] = Histimine (% vs. 48/40)

SMILES	percent intrinsic activity at 0.3 µM [1] [%]	Histimine (% vs. 48/40) [2] [%]	EC50 ([1]; inhibition of NKH477 stimulated cAMP, APJ-hTREX cells, read-out: APJ-hTREX EC50) [nM]	Ranking [1]	EC50 [1] [nM]
CCCCCCCCCCCCCCCC(=O)N[C@H](C(=O)N[C@H](C(=O)N[C@@H](Cc1ccccc1)C(=O)N[C@@H](CCCNC(=N)N)C(=O)N[C@@H](CO)C(=O)N[C@@H](CO)C(=O)N[C@@H](CCC(=O)O)C(=O)N[C@H](CCCCN)C(=O)N[C@@H](CCCNC(=N)N)C(=O)N[C@@H](CCCNC(=N)N)C(=O)N[C@@H](CO)C(=O)N[C@@H](C)C(=O)N1CCC[C@H]1C(=O)N[C@H](C(=O)N[C@@H](Cc1ccccc1)C(=O)N[C@H](C(N)=O)[C@@H](C)CC)[C@@H](C)CC)C(C)C)[C@@H](C)O [Compound 53] (Palmitoyl-TVFRSSE[dK]RRSAPIFI-NH2)	75	115			
CCCCCCCCCCCCCCCC(=O)N[C@H](C(=O)N[C@H](C(=O)N[C@@H](Cc1ccccc1)C(=O)N[C@@H](CCCNC(=N)N)C(=O)N[C@@H](CO)C(=O)N[C@@H](CO)C(=O)N[C@@H](CCC(=O)O)C(=O)N[C@H](CCCCN)C(=O)N[C@@H](CCCNC(=N)N)C(=O)N[C@@H](CCCNC(=N)N)C(=O)N[C@@H](CO)C(=O)N[C@@H](C)C(=O)N[C@@H](CC(=O)O)C(=O)N1CCC[C@H]1C(=O)N[C@@H](Cc1ccccc1)C(=O)N[C@H](C(N)=O)[C@@H](C)CC)C(C)C)[C@@H](C)O [Compound 54] (Palmitoyl-TVFRSSE[dK]RRSADPFI-NH2)	46	60			
CCCCCCCCCCCCCCCC(=O)N[C@H](C(=O)NC(C)(C)C(=O)N[C@@H](Cc1ccccc1)C(=O)N[C@@H](CCCNC(=N)N)C(=O)N[C@@H](CO)C(=O)N[C@@H](CO)C(=O)N[C@@H](CCC(=O)O)C(=O)N[C@H](CCCCN)C(=O)N[C@@H](CCCNC(=N)N)C(=O)N[C@@H](CCCNC(=N)N)C(=O)N[C@@H](CO)C(=O)N[C@@H](C)C(=O)N[C@@H](CC(=O)O)C(=O)N[C@H](C(=O)N[C@@H](Cc1ccccc1)C(=O)N[C@H](C(N)=O)[C@@H](C)CC)[C@@H](C)CC)[C@@H](C)O [Compound 57] (Palmitoyl-T[Aib]FRSSE[dK]RRSADIFI-NH2; C-terminus assumed)	77	39		*** (EC50<100 nM and % histamine>35%)	68
CCCCCCCCCCCCCCCC(=O)N[C@H](C(=O)N[C@H](C(=O)N[C@@H](Cc1ccccc1)C(=O)NC(C)(C)C(=O)N[C@@H](CO)C(=O)N[C@@H](CO)C(=O)N[C@@H](CCC(=O)O)C(=O)N[C@H](CCCCN)C(=O)N[C@@H](CCCNC(=N)N)C(=O)N[C@@H](CCCNC(=N)N)C(=O)N[C@@H](CO)C(=O)N[C@@H](C)C(=O)N[C@@H](CC(=O)O)C(=O)N[C@H](C(=O)N[C@@H](Cc1ccccc1)C(=O)N[C@H](C(N)=O)[C@@H](C)CC)[C@@H](C)CC)C(C)C)[C@@H](C)O [Compound 58] (Palmitoyl-TVF[Aib]SSE[dK]RRSADIFI-NH2; C-terminus assumed)	54	11		* (EC50>500 nM and % histamine>35%)	10000
CCCCCCCCCCCCCCCC(=O)N[C@H](C(=O)N[C@H](C(=O)N[C@@H](Cc1ccccc1)C(=O)N[C@@H](CCCNC(=N)N)C(=O)N[C@@H](CO)C(=O)N[C@@H](CO)C(=O)N[C@@H](CCC(=O)O)C(=O)NC(C)(C)C(=O)N[C@@H](CCCNC(=N)N)C(=O)N[C@@H](CCCNC(=N)N)C(=O)N[C@@H](CO)C(=O)N[C@@H](C)C(=O)N[C@@H](CC(=O)O)C(=O)N[C@H](C(=O)N[C@@H](Cc1ccccc1)C(=O)N[C@H](C(N)=O)[C@@H](C)CC)[C@@H](C)CC)C(C)C)[C@@H](C)O [Compound 60] (Palmitoyl-TVFRSSE[Aib]RRSADIFI-NH2; C-terminus assumed)	65	26		**** (EC50 101-500 nM and % histamine<35%)	167
CCCCCCCCCCCCCCCC(=O)N[C@H](C(=O)N[C@H](C(=O)N[C@@H](Cc1ccccc1)C(=O)N[C@@H](CCCNC(=N)N)C(=O)N[C@@H](CO)C(=O)N[C@@H](CO)C(=O)N[C@@H](CCC(=O)O)C(=O)N[C@H](CCCCN)C(=O)NC(C)(C)C(=O)N[C@@H](CCCNC(=N)N)C(=O)N[C@@H](CO)C(=O)N[C@@H](C)C(=O)N[C@@H](CC(=O)O)C(=O)N[C@H](C(=O)N[C@@H](Cc1ccccc1)C(=O)N[C@H](C(N)=O)[C@@H](C)CC)[C@@H](C)CC)C(C)C)[C@@H](C)O [Compound 61, TVFRSSEk(Aib)RSADIFI] (Palmitoyl-TVFRSSE[dK][Aib]RSADIFI-NH2; C-terminus assumed)	62	25			5210

More lines, main results first:

percent intrinsic activity at 0.3 µM [1] [%]	Histimine (% vs. 48/40) [2] [%]	EC50 ([1]; inhibition of NKH477 stimulated cAMP, APJ-hTREX cells, read-out: APJ-hTREX EC50) [nM]	SMILES	Ranking [1]	EC50 [1] [nM]
43	33		CCCCCCCCCCCCCCCC(=O)N[C@H](C(=O)N[C@H](C(=O)N[C@@H](Cc1ccccc1)C(=O)N[C@@H](CCCNC(=N)N)C(=O)N[C@@H](CO)C(=O)N[C@@H](CO)C(=O)N[C@@H](CCC(=O)O)C(=O)N[C@H](CCCCN)C(=O)N[C@@H](CCCNC(=N)N)C(=O)N[C@@H](CCCNC(=N)N)C(=O)N[C@@H](CO)C(=O)N[C@@H](C)C(=O)N[C@@H](CC(=O)O)C(=O)N[C@H](C(=O)N1CCC[C@H]1C(=O)N[C@H](C(N)=O)[C@@H](C)CC)[C@@H](C)CC)C(C)C)[C@@H](C)O [Compound 55] (Palmitoyl-TVFRSSE[dK]RRSADIPI-NH2)		
92	50	15.4	CCCCCCCCCCCCCCCC(=O)N[C@H](C(=O)N[C@H](C(=O)N[C@@H](Cc1ccccc1)C(=O)N[C@@H](CCCNC(=N)N)C(=O)N[C@@H](CO)C(=O)N[C@@H](CO)C(=O)N[C@@H](CCC(=O)O)C(=O)N[C@H](CCCCN)C(=O)N[C@@H](CCCNC(=N)N)C(=O)N[C@@H](CCCNC(=N)N)C(=O)N[C@@H](CO)C(=O)N[C@@H](C)C(=O)N[C@@H](CC(=O)O)C(=O)N[C@H](C(=O)N[C@@H](Cc1ccccc1)C(=O)N1CCC[C@H]1C(N)=O)[C@@H](C)CC)C(C)C)[C@@H](C)O [Compound 56] (Palmitoyl-TVFRSSE[dK]RRSADIFP-NH2; C-terminus assumed)	*** (EC50<100 nM and % histamine>35%)	
51	25		CCCCCCCCCCCCCCCC(=O)N[C@H](C(=O)N[C@H](C(=O)N[C@@H](Cc1ccccc1)C(=O)N[C@@H](CCCNC(=N)N)C(=O)N[C@@H](CO)C(=O)N[C@@H](CO)C(=O)N[C@@H](CCC(=O)O)C(=O)N[C@H](CCCCN)C(=O)N[C@@H](CCCNC(=N)N)C(=O)NC(C)(C)C(=O)N[C@@H](CO)C(=O)N[C@@H](C)C(=O)N[C@@H](CC(=O)O)C(=O)N[C@H](C(=O)N[C@@H](Cc1ccccc1)C(=O)N[C@H](C(N)=O)[C@@H](C)CC)[C@@H](C)CC)C(C)C)[C@@H](C)O [Compound 62, TVFRSSEkR(Aib)SADIFI] (Palmitoyl-TVFRSSE[dK]R[Aib]SADIFI-NH2)		
61	86		CCCCCCCCCCCCCCCC(=O)N[C@H](C(=O)N[C@H](C(=O)N[C@@H](Cc1ccccc1)C(=O)N[C@@H](CCCNC(=N)N)C(=O)N[C@@H](CO)C(=O)N[C@@H](CO)C(=O)N[C@@H](CCC(=O)O)C(=O)N[C@H](CCCCN)C(=O)N[C@@H](CCCNC(=N)N)C(=O)N[C@@H](CCCNC(=N)N)C(=O)NC(C)(C)C(=O)N[C@@H](C)C(=O)N[C@@H](CC(=O)O)C(=O)N[C@H](C(=O)N[C@@H](Cc1ccccc1)C(=O)N[C@H](C(N)=O)[C@@H](C)CC)[C@@H](C)CC)C(C)C)[C@@H](C)O [Compound 63, TVFRSSEkRR(Aib)ADIFI] (Palmitoyl-TVFRSSE[dK]RR[Aib]ADIFI-NH2)		
60	105		CCCCCCCCCCCCCCCC(=O)N[C@H](C(=O)N[C@H](C(=O)N[C@@H](Cc1ccccc1)C(=O)N[C@@H](CCCNC(=N)N)C(=O)N[C@@H](CO)C(=O)N[C@@H](CO)C(=O)N[C@@H](CCC(=O)O)C(=O)N[C@H](CCCCN)C(=O)N[C@@H](CCCNC(=N)N)C(=O)N[C@@H](CCCNC(=N)N)C(=O)N[C@@H](CO)C(=O)NC(C)(C)C(=O)N[C@@H](CC(=O)O)C(=O)N[C@H](C(=O)N[C@@H](Cc1ccccc1)C(=O)N[C@H](C(N)=O)[C@@H](C)CC)[C@@H](C)CC)C(C)C)[C@@H](C)O [Compound 64, TVFRSSEkRRS(Aib)DIFI] (Palmitoyl-TVFRSSE[dK]RRS[Aib]DIFI-NH2)		
45	100		CCCCCCCCCCCCCCCC(=O)N[C@H](C(=O)N[C@H](C(=O)N[C@@H](Cc1ccccc1)C(=O)N[C@@H](CCCNC(=N)N)C(=O)N[C@@H](CO)C(=O)N[C@@H](CO)C(=O)N[C@@H](CCC(=O)O)C(=O)N[C@H](CCCCN)C(=O)N[C@@H](CCCNC(=N)N)C(=O)N[C@@H](CCCNC(=N)N)C(=O)N[C@@H](CO)C(=O)N[C@@H](C)C(=O)NC(C)(C)C(=O)N[C@H](C(=O)N[C@@H](Cc1ccccc1)C(=O)N[C@H](C(N)=O)[C@@H](C)CC)[C@@H](C)CC)C(C)C)[C@@H](C)O [Compound 65, TVFRSSEkRRSA(Aib)IFI] (Palmitoyl-TVFRSSE[dK]RRSA[Aib]IFI-NH2)		
